Experiment [1] has as its target T1, Sodium- and chloride-dependent GABA transporter 3 (Mus musculus, UniProt P31650).
T1 sequence (P31650 whole entry): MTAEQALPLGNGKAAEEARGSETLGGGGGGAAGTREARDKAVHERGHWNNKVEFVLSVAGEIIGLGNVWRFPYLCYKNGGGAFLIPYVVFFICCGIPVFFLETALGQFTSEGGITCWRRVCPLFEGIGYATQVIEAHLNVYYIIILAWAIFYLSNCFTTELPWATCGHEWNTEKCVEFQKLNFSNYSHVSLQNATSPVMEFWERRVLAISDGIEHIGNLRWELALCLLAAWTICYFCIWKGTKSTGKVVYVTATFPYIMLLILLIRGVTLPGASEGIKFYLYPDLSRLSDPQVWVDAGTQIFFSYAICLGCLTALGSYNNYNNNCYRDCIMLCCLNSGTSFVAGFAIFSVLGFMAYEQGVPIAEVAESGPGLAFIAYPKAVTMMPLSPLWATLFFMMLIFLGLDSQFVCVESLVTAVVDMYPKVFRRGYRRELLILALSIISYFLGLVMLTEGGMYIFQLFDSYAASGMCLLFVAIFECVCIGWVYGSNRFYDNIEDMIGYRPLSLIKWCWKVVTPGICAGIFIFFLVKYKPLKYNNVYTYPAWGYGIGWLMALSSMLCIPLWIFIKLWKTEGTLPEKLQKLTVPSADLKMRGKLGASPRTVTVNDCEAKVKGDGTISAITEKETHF
As to the kind of experiment: Inhibition of mouse GAT3 expressed in HEK cells assessed as inhibition of [3H]-GABA uptake after 25 mins by liquid scintillation counting analysis.

Experiment [2] deals with T2, Sodium- and chloride-dependent GABA transporter 2 (Mus musculus, UniProt P31649).
T2 sequence (P31649 whole entry): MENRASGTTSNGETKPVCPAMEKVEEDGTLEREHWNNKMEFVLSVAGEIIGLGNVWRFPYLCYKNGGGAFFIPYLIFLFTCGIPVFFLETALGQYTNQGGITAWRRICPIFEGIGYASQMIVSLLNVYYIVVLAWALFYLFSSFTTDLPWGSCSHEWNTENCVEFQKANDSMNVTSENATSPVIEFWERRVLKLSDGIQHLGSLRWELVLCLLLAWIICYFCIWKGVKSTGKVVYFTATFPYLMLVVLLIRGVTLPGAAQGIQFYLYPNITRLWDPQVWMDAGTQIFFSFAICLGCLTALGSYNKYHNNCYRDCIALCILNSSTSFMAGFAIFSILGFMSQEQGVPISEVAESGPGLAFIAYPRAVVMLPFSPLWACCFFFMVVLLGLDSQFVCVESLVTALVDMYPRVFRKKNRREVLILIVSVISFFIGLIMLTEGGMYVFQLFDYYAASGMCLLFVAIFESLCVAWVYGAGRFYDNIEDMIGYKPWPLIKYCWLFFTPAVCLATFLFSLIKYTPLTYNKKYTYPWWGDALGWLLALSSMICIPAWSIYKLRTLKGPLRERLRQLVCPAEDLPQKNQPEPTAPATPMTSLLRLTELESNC
As to the kind of experiment: Inhibition of mouse GAT2 expressed in HEK cells assessed as inhibition of [3H]-GABA uptake after 25 mins by liquid scintillation counting analysis.

As usually defined, the IC50 is the concentration that gives 50% inhibition.

Turning to `O=C(c1cccc(F)c1)c1ccc(F)cc1/C=C/OCCN1CCCC(C(=O)O)C1` (centres undefined), the IC50 amounted to 339 µM in experiment [1] and 60.3 µM in experiment [2].
In the same order, the values of `O=C(O)C1CCCN(CCO/C=C\c2cc(F)ccc2Cc2ccc(F)cc2)C1` (centres undefined) are 50.1 µM and 91.2 µM.
Turning to `O=C(O)C1CCCN(CCO/C=C\c2cc(F)ccc2Cc2ccccc2F)C1` (centres undefined), the IC50 in experiment [1] is 28.2 µM.
Turning to `O=C(c1ccccc1F)c1cc(F)ccc1/C=C\OCCN1CCCC(C(=O)O)C1` (centres undefined), in experiment [2], the IC50 was 66.1 µM.
With `O=C(O)C1CCCN(CCO/C=C\c2ccc(F)cc2Cc2ccccc2F)C1` (centres undefined), the IC50 in experiment [1] is 19.5 µM.
Still for that read-out and setting: the value for `O=C(O)C1CCCN(CCO/C=C\c2ccc(F)cc2Cc2ccc(F)cc2)C1` (centres undefined) was 34.7 µM.
`O=C(c1ccccc1F)c1cc(F)ccc1/C=C/OCCN1CCCC(C(=O)O)C1` (centres undefined): the 50% inhibitory concentration (IC50) in experiment [1] was 372 µM; in experiment [2], 141 µM.
Take `O=C(O)C1CCCN(CCO/C=C\c2cc(F)ccc2Cc2cccc(F)c2)C1` (centres undefined): the IC50 in experiment [1] was found to be 20 µM.
Turning to `O=C(O)C1CCCN(CCO/C=C/c2ccccc2Cc2ccccc2)C1` (centres undefined), the concentration for half-maximal inhibition (IC50) in experiment [1] is 37.2 µM.
Regarding `O=C(O)[C@@H]1CCCN(CCC=C(c2ccccc2)c2ccccc2)C1` [(R)-1-(4,4-Diphenyl-but-3-enyl)-piperidine-3-carboxylic acid], the IC50 is 195 µM in experiment [1] and 372 µM in experiment [2].

Values taken from BindingDB's records for doi:10.1016/j.bmc.2013.02.056 (Ludwig-Maximilians-University Munich, 2013).
